Test system: MDA-MB-231 cells with scrambled shRNA (control)
Assay: Cellular PARylation, anti-PAR immunoblot
Type: cell-based, human
Protocol: Fig. 6 Selective inhibition of PARG by xanthine derivative JA2131. a Clonogenic survival assays of PC3, MDA-MB-231, and MCF-7 cells treated with PARGi. Cells were treated with either DMSO or 10 µM JA2131 for 2 h, irradiated with 3 Gy (MDA-MB-231 and MCF-7), 7 Gy (PC3) IR and grown for ~2 weeks, then colonies were fixed with methanol and stained with crystal violet. The results of three independent experiments are shown. Error bars = the standard error of the mean (SEM). b dose-response of JA2131 in MDA-MB-231 cells with and without IR. Cells were treated with designated concentrations of JA2131 for 2 h and then either left untreated or exposed to 3 Gy IR and allowed to recover for 1 h before lysis. Total protein was immunoblotted with anti-PAR antibody (upper panel), stripped and reprobed with anti-PCNA as a loading control. c MDA-MB-231 cells with stable scrambled shRNA (WT) or stable PARG shRNA, knockdown (KD), were treated with 5 μM JA2131 for 2 h, lysed and then total lysates were immunoblotted for anti-PAR (upper panel) followed by anti-PARG (upper middle panel), anti-PARP1 (lower middle panel) and anti-actin (bottom panel) antibody. […] Stable cells with scramble shRNA (control) and shPARG (PARG-KD) cells were treated with an increasing concentration of JA2131 for growth inhibitory IC50 determination. The data was normalized against 100% survival at the lowest inhibitor concentration. Error bars show the percent coefficient of variation. Equivalent concentrations of DMSO were used as a negative control. e The cytotoxicity of JA2131 along with PDD, Veliparib and Doxorubicin against MRC-5 cells. Error bars show the percent coefficient of variation. f CETSA for in-cell JA2131 target engagement. Normalized anti-PARG western blot intensities of three independent experiments were fitted as above and the estimated aggregation temperature (Tagg) is shown in the tabulated insert. Source Data are provided as a Source Data file.
Thus, dose-dependent JA2131-induced cellular PARylation with and without IR was investigated. For combined IR treatment, MDA-MB-231 cells were treated with JA2131 for 2 h, followed by […] X-ray and then allowed to recover for an hour before cellular extraction and western blotting analysis.
Using shRNA, next, we generated a stable MDA-MB-231 PARG knockdown (PARG-KD) cell-line (Supplementary Fig. 10). We compared PARGi JA2131-induced PARylation in PARG-KD and control cells. We reasoned that PARG-KD cells would show a reduced response to a selective PARGi as the stable PARG-KD cells would have to adopt a PARG-independent survival mechanism. MDA-MB-231 control cells and PARG-KD cells were treated with JA2131, then total cell lysates were subjected to immunoblotting with anti-PAR antibody, followed by immunodetection for anti-PARG, PARP1 and Actin antibody (Fig. 6c). […] Dose-response curves comparing control and PARG-KD cells further validate the selective action of JA2131 on control cells expressing PARG, but not on the PARG-KD cells (Supplementary Fig. 12).
Cells were grown in 6-well plates and 10 cm dishes, treated with PARGi for 2 h, irradiated and recovered for 1 h before harvesting. Cells were irradiated, ranging from 1 to 10 Gy using RAD SOURCE, RS-2000, Biological System, RadSource.com. Cells were washed with phosphate buffer and saline (PBS) and lysed with buffer containing 50 mM Hepes, pH 7.5, 1% (vol/vol) igepal-C630, 1 mg/ml bacitracin, 1 mM EDTA, 10 mM NaF, 1 mM sodium orthovanadate, 10% (vol/vol) glycerol, 50 mM NaCl, 1 mM PMSF, and Protease Inhibitor Cocktail Set III (EMD Millipore). The detergent-soluble fraction was used for western blotting. Cell fractionation was carried out using the Subcellular Protein Fractionation Kit, (#78840, ThermoFisher) according to the manufacturer’s instruction. Primary antibodies were purchased from the following sources; Actin, GAPDH, γH2AX and Histone-H3 was from Cell Signaling Technology. H2AX and LAMB1 were from Invitrogen/ThermoFisher. […]

Cn1c(=S)c2[nH]c(SCCN3CCOCC3)nc2n(C)c1=O [JA2131]
anti-PAR western blot band, Normalized (5 μM JA2131 2 h, Ci-DMSO = 1): 6.313
anti-PAR western blot band, Intensity inversion (5 μM JA2131 2 h, ImageJ): 0.006671
anti-PAR western blot band, Neg. substracted (5 μM JA2131 2 h, ImageJ): 0.001364
anti-PAR western blot band, mean int. (5 μM JA2131 2 h, ImageJ): 149.9
PAR accumulation after treatment (5 μM, 2 h): a measurable increase in PAR
cellular PARylation (JA2131 2 h combined with IR, 1 h recovery): massive increase in cellular PARylation at 100 nM
cellular PARylation (JA2131 alone, 2 h): dose-dependent increase in cellular PARylation between 1 μM and 5 μM doses
